As a reminder, the EC50 is the concentration needed to bring the measured effect to its halfway point. In general, IC50 refers to the midpoint of a concentration-inhibition curve. The bioavailability is the share of a dose that reaches the circulation, judged against a reference dose that is usually intravenous. As a reminder, the CC50 is the concentration giving 50% cytotoxicity. Usually EC90 stands for the point of the concentration-response curve where the effect stands at 90%. A word on the Ki: it is a measure of affinity in units of concentration, obtained from inhibition or displacement.

The text below walks through data of ChEMBL document CHEMBL4431301, “The Medicinal Chemistry of Dengue Virus” (J Med Chem, 2016).

Data set [1] deals with dengue virus type 3. Kind of data set: Antiviral activity against Dengue virus 3 infected in african green monkey Vero E6 cells assessed as inhibition of viral yield after 72 hrs by flow cytometry. The format is functional, organism-based. To be noted: Vero C1008, 72 h. (Flow cytometry measures light scatter and fluorescence of single cells or particles in a stream.)
In data set [2] the test system is dengue virus type 1. Kind of data set: Antiviral activity against Dengue virus 1 infected in african green monkey Vero E6 cells assessed as inhibition of viral yield after 72 hrs by flow cytometry. The format is functional, organism-based. To be noted: Vero C1008, 72 h.
Data set [3] concerns dengue virus type 4. Kind of data set: Antiviral activity against Dengue virus 4 infected in african green monkey Vero E6 cells assessed as inhibition of viral yield after 72 hrs by flow cytometry. The format is functional, organism-based. To be noted: Vero C1008, 72 h.
Data set [4] is described as follows: Drug uptake in C57BL/6 mouse kidney infected with Ebola virus at 3 mg/kg, iv administered 2 hrs prior to viral infection measured on day 2 and 5 post viral infection by mass spectrometry. Type of data set: ADME, organism-based. To be noted: read-out: Drug uptake.
A short description of data set [5]: Drug uptake in C57BL/6 mouse spleen infected with Ebola virus at 3 mg/kg, iv administered 2 hrs prior to viral infection measured on day 2 and 5 post viral infection by mass spectrometry. To be noted: read-out: Drug uptake. Type of data set: ADME, organism-based.
Data set [6] relates to dengue virus type 2. Kind of data set: Antiviral activity against Dengue virus 2 infected in african green monkey Vero E6 cells assessed as inhibition of viral yield after 72 hrs by flow cytometry. Type of data set: functional, organism-based. To be noted: Vero C1008, 72 h.
Data set [7] relates to dengue virus type 1. Kind of data set: Antiviral activity against Dengue virus 1 infected in human PBMC assessed as reduction in viral titer after 48 hrs preincubated with cells prior to ADE-mediated viral infection by plaque assay. The format is functional, organism-based.
Data set [8] in a line: Inhibition of biotinylated Imp-alpha/beta1 (unknown origin) binding to Dengue virus NS5 by alpha screen assay. Also noted: species or system Homo sapiens. For orientation: In Alpha technology, singlet oxygen from a donor bead excites a nearby acceptor bead.
For data set [9], the system named is West Nile virus. Kind of data set: Antiviral activity against West Nile virus Kunjin preincubated for 30 mins with virus followed by cell infection for 2 hrs measured after 3 days by crystal violet staining based plaque reduction assay. The format is functional, organism-based. On the technique in general: Plaque reduction counts the foci of infection that form in a cell layer.

For the next data set, the system named is Yellow fever virus. Kind of data set: Antiviral activity against Yellow fever virus 17D Vaccine preincubated for 30 mins with virus followed by cell infection for 2 hrs measured after 6 days by crystal violet staining based plaque reduction assay. The format is functional, organism-based.
The nature of data set [10]: Selectivity index, ratio of CC50 for african green monkey Vero cells to EC50 for Dengue virus 2 NGC. Type of data set: toxicity. To be noted: read-out: Ratio CC50/EC50.
The subject of data set [11] is dengue virus type 2. Kind of data set: Antiviral activity against Dengue virus 2 NGC preincubated for 30 mins with virus followed by cell infection for 2 hrs measured after 5 days by immunostaining based plaque reduction assay. Type of data set: functional, organism-based.
For data set [12], the system named is dengue virus type 2. Kind of data set: Antiviral activity against Dengue virus 2 by CFI assay. The format is functional, organism-based.
The test system of data set [13] is West Nile virus. Kind of data set: Antiviral activity against West Nile virus NY99 infected in african green monkey Vero cells assessed as reduction in viral titer preincubated for 2 hrs measured after 4 days by qRT-PCR. The format is functional, organism-based.
Data set [14] deals with dengue virus type 1. Kind of data set: Antiviral activity against Dengue virus 1 by CFI assay. Type of data set: functional, organism-based.
Data set [15] relates to dengue virus type 3. Kind of data set: Antiviral activity against Dengue virus 3 by CFI assay. Type of data set: functional, organism-based.
For data set [16], the system named is dengue virus type 2. Kind of data set: Antiviral activity against Dengue virus 2 NGC infected in african green monkey Vero cells assessed as reduction in viral titer preincubated for 2 hrs measured after 4 days by qRT-PCR. The format is functional, organism-based.
Data set [17] is described as follows: Inhibition of GST-fused Imp-alpha/beta1 (unknown origin) binding to Dengue virus NS5 after 2 hrs by alpha screen assay. Details: species or system Homo sapiens.
In data set [18] the test system is dengue virus type 4. Kind of data set: Antiviral activity against Dengue virus 4 by CFI assay. Type of data set: functional, organism-based.
Data set [19] deals with dengue virus type 2. Kind of data set: Antiviral activity against Dengue virus 2 Taiwanese PL046 infected in BHK21 cells after 48 hrs by plaque assay. To be noted: Taiwanese PL046, BHK-21, 48 h. The format is functional, organism-based.
The nature of data set [20]: Oral bioavailability in Balb/c mouse at 200 mg/kg after 5 mins to 48 hrs by LC-MS/MS analysis. Type of data set: ADME, organism-based. To be noted: in vivo.
The nature of data set [21]: Cytotoxicity against african green monkey Vero cells. The format is cell-based. To be noted: chlorocebus sabaeus.
The subject of data set [22] is dengue virus type 2. Kind of data set: Antiviral activity against Dengue virus 2 NGC infected in african green monkey Vero cells assessed as reduction in viral titer preincubated for 1 hr followed by viral infection measured after 5 days by plaque assay. Type of data set: functional, organism-based.
Data set [23] has as its system West Nile virus. Kind of data set: Antiviral activity against West Nile virus infected in african green monkey Vero cells assessed as reduction in viral titer after 42 hrs by plaque assay. The format is functional.
In data set [24] the test system is dengue virus type 2. Kind of data set: Antiviral activity against Dengue virus 2 NGC infected in african green monkey Vero cells assessed as reduction in viral titer after 42 hrs by plaque assay. The format is functional.
Data set [25] concerns the target T1, Genome polyprotein (dengue virus type 2, UniProt P29990). Kind of data set: Mixed noncompetitive inhibition of the Dengue virus 2 NS2B-NS3 protease expressed in Escherichia coli using Boc-GRR-AMC as substrate assessed as enzyme-inhibitor complex after 30 mins by spectrofluorometry.
The target in data set [26] is T1, Genome polyprotein. Kind of data set: Mixed noncompetitive inhibition of the Dengue virus 2 NS2B-NS3 protease expressed in Escherichia coli using Boc-GRR-AMC as substrate assessed as enzyme-substrate-inhibitor complex after 30 mins by Michaelis-Menten plot analysis.
In data set [27] the test system is dengue virus type 2. Kind of data set: Antiviral activity against Dengue virus 2 infected in human Huh7 cells assessed as reduction in viral replication after 48 hrs by plaque assay. To be noted: Huh-7, 48 h. Type of data set: functional, organism-based.
Data set [28] has as its system dengue virus type 4. Kind of data set: Antiviral activity against Dengue virus 4 infected in human Huh7 cells assessed as reduction in viral replication after 48 hrs by plaque assay. The format is functional, organism-based. To be noted: Huh-7, 48 h.
Data set [29] relates to dengue virus type 3. Kind of data set: Antiviral activity against Dengue virus 3 infected in human Huh7 cells assessed as reduction in viral replication after 48 hrs by plaque assay. Type of data set: functional, organism-based. To be noted: Huh-7, 48 h.
The subject of data set [30] is dengue virus type 1. Kind of data set: Antiviral activity against Dengue virus 1 infected in human Huh7 cells assessed as reduction in viral replication after 48 hrs by plaque assay. The format is functional, organism-based. To be noted: Huh-7, 48 h.
The nature of data set [31]: Inhibition of Dengue virus 2 16681 NS5 guanylation expressed in Escherichia coliBL21(DE3) cells after 4 hrs by coomassie blue staining based SDS-PAGE method. Details: species or system dengue virus type 2.
In data set [32] the test system is dengue virus type 2. Kind of data set: Antiviral activity against Dengue virus 2 infected in BHK-pD2hRucPac cells assessed as reduction in virus replication after 72 hrs by renilla luciferase reporter gene assay. Type of data set: functional, organism-based.

T1 sequence (P29990 1346-1475 limits assumed): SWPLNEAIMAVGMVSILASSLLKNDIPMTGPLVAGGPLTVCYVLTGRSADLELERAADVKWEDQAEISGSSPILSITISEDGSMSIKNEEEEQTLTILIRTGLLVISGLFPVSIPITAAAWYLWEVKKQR
T1 sequence (P29990 1476-2093 limits assumed): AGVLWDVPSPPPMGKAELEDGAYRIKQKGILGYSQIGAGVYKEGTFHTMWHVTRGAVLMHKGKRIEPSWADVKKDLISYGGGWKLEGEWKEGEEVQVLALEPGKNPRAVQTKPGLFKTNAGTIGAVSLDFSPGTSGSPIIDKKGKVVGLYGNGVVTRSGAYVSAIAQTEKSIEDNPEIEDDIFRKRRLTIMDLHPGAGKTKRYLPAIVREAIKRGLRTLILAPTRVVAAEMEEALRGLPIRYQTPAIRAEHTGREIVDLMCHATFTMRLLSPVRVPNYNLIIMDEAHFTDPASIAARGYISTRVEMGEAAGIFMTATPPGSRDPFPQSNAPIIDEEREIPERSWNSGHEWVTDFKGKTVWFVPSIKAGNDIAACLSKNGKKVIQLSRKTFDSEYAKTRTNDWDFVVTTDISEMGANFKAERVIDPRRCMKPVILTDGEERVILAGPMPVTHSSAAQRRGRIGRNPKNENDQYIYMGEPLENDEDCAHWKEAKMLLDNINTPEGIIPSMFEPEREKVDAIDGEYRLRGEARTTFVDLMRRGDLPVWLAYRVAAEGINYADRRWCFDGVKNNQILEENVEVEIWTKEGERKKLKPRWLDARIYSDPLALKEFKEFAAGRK

For `Cc1cc(NCCCN(C)C)c2ccc3c(ccc4c(NCCCN(C)C)cc(C)nc43)c2n1`, the concentration giving a half-maximal response (EC50) with dengue virus type 3 [1], in the data set on dengue virus type 1 [2], with dengue virus type 4 [3] and in the data set with dengue virus type 2 [6] was 400 to 900 nM throughout. Also, the values for the concentration at 2 h in [4] and in [5] were 43100 ng/g and 19500 ng/g, respectively.

Consider `CC1=C(/C=C/C(C)=C/C=C/C(C)=C/C(=O)Nc2ccc(O)cc2)C(C)(C)CCC1` [FENRETINIDE], for which, in the data set with dengue virus type 1 [7], the half-maximal effective concentration (EC50) fell in the range of 800 to 2600 nM. In data set [8], this molecule yielded a concentration for half-maximal inhibition (IC50) of 1000 to 1500 nM.

Regarding `C/C(=N\Nc1ccccc1)c1sc(-c2cc(Cl)nc(Oc3ccc(Cl)cc3)c2)nc1C`, the half-maximal inhibitory concentration (IC50) was found to be 3800 nM with West Nile virus [9], 1600 nM in the data set on Yellow fever virus and 1200 nM with dengue virus type 2 [11]. Moreover, in data set [10], the selectivity ratio is greater than 83.

For IVERMECTIN, the concentration for a half-maximal effect (EC50) with dengue virus type 2 [12] was 1200 to 1600 nM; in the data set with West Nile virus [13], 4000 nM; in the data set on dengue virus type 1 [14], 1200 to 1600 nM; with dengue virus type 3 [15] it was 1200 to 1600 nM; in the data set with dengue virus type 2 [16], 700 nM; in the data set on dengue virus type 4 [18], 1200 to 1600 nM. In data set [17], this molecule showed a concentration for half-maximal inhibition (IC50) of 17000 nM.

For `CCCCCCCCCCN1[C@H](CO)[C@@H](O)[C@H](O)[C@H]1CNC(=O)C1Cc2ccccc21` (stereo partly drawn), the response in the data set on dengue virus type 2 [19] was half-maximal at 4700 nM (EC50).

Regarding `COCCCCCCCCCN1C[C@H](O)[C@@H](O)[C@H](O)[C@H]1CO`, in [20], the bioavailability turned out to be 84%. In [21], this molecule gave a cytotoxic concentration (CC50) greater than 500000 nM. For the same molecule, the EC50 in the data set with dengue virus type 2 [22] came to 17000 nM.

As for `COC(=O)c1c(-c2c(Cl)cccc2Cl)noc1-c1cnn(-c2cccc(Cl)c2)c1C(F)(F)F`, the EC90 was determined as 0.31 nM in the data set with West Nile virus [23] and 5.2 nM with dengue virus type 2 [24].

Take `O=C1Cc2ccc(F)cc2C[C@@H]1C1=Cc2ccc(F)cc2CC1`: the values for the Ki on Genome polyprotein [25] and on Genome polyprotein [26] were 7000 nM and 15000 nM, respectively.

Take `CC(=O)O[C@H]1C[C@H](O[C@H]2[C@@H](O)C[C@H](O[C@H]3[C@@H](O)C[C@H](O[C@H]4CC[C@@]5(C)[C@H](CC[C@@H]6[C@@H]5C[C@@H](O)[C@]5(C)[C@@H](C7=CC(=O)OC7)CC[C@]65O)C4)O[C@@H]3C)O[C@@H]2C)O[C@H](C)[C@H]1O[C@@H]1O[C@H](CO)[C@@H](O)[C@H](O)[C@H]1O` [LANATOSIDE C]: the IC50 in the data set on dengue virus type 2 [27], in the data set on dengue virus type 4 [28], in the data set on dengue virus type 3 [29] and in the data set on dengue virus type 1 [30] was 500 to 1000 nM in each case.

In turn, `CC(C)(C)c1ccc(/C=C2\SC(=S)N(CCC(=O)O)C2=O)cc1` had a 50% inhibitory concentration (IC50) in data set [31] of 7300 nM. Further, the concentration for a half-maximal effect (EC50) in the data set with dengue virus type 2 [32] worked out at 30800 nM.
